Read-outs that look alike come from different tables or passages of the source.
Experiments:
[1] = biological target: T1, 5-LOX (Glycine max, UniProt P08170); test: Affinity ultrafiltration-HPLC binding degree to 5-LOX; details: GJR extract, 37 °C 30 min
T1 sequence (P08170 1-839): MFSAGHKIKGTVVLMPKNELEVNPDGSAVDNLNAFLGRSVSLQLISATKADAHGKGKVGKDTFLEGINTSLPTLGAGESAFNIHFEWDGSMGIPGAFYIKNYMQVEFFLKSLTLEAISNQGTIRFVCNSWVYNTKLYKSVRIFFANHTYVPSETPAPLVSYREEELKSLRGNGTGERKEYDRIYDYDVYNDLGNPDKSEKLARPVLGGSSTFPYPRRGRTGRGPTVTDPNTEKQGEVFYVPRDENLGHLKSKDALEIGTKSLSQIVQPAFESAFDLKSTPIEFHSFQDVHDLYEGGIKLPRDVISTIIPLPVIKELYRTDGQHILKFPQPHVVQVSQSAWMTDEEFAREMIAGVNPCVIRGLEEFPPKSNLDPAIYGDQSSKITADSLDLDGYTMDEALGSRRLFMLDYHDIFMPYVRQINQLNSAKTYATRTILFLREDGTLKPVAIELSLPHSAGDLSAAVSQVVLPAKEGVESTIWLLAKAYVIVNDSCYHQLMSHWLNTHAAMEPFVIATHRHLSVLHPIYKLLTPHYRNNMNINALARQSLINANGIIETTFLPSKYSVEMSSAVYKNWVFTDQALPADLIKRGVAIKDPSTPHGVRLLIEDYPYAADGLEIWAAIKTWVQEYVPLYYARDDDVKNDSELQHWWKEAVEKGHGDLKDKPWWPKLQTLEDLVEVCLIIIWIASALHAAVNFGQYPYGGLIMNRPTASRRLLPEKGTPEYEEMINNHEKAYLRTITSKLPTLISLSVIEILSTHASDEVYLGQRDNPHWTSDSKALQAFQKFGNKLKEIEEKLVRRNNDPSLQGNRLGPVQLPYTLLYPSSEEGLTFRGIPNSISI
Experimental: (§1) A total of 300 g of GJR was accurately weighed, dried, and ground into a fine powder using a mechanical grinder. The powdered material was extracted with 60% ethanol (v/v) at a solvent-to-solid ratio of 20:1 (v/v). Each extraction cycle involved ultrasonication for 1 h and was performed twice to ensure exhaustive extraction. The combined extracts were concentrated to dryness by rotary evaporation under reduced pressure, yielding 6.75 g of crude extract. A 50 mg portion of the crude extract was accurately weighed, dissolved in 50% methanol–water (v/v), and diluted to a final concentration of 50 mg/ml to obtain a stock solution for subsequent experiments. All procedures were conducted under controlled laboratory conditions to ensure consistency and reproducibility.
(§2) The screening assay consisted of two groups: a blank control and an experimental group, both prepared in phosphate-buffered saline (PBS). In the experimental group, 10.0 μl of the sample solution was mixed with 90.0 μl of either 5-lipoxygenase (5-LOX) and acetylcholinesterase (AChE) at final concentrations of 0.5, 1.0, or 2.0 U/ml, along with 100 μl of PBS (pH 7.4), resulting in a total volume of 200 μl. The mixture was incubated at 37 °C for 30 min and subsequently filtered through a 100 kDa ultrafiltration membrane by centrifugation at high speed for 10 min. The supernatant was discarded, and the membrane was washed three times with PBS to remove free or non-specifically bound compounds. Then, 150 μl of 50% methanol–water was added to denature the proteins and release the bound small molecules. For the blank control, the enzyme solution was replaced with an equal volume of PBS, while all other experimental conditions remained the same. The resulting eluate was analyzed by HPLC. The binding degree (BD) was used to quantify the interaction between compounds and the target enzymes. It was calculated based on the increase in chromatographic peak area of enzyme-bound compounds, using the following formula: […]

[2] = biological target: T2, AChE (Musca domestica, UniProt A0ABM3VDL1); test: Affinity ultrafiltration-HPLC binding degree to AChE; set-up: species or system fly; details: GJR extract, 37 °C 30 min
Experimental: as §1, §2

[3] = biological target: T1, 5-LOX; test: 5-LOX enzyme inhibition and inhibition kinetics (linoleic acid substrate, HPLC); format: biochemical; details: Lineweaver-Burk / rate vs enzyme concentration
From the text: Galantamine served as the positive control.

[4] = biological target: T2, AChE
Experimental: Acetylcholinesterase (AChE, EC 3.2.1.20) was extracted from fly heads.
All reagents were prepared with 0.05 mol/L phosphate buffer solution at pH 6.8. […] Before use, it was diluted to 0, 5, 10, 15, and 20 × 10^−5 mol/L. 5-LOX and linoleic acid were, respectively prepared at concentrations of 2.08 × 10^−7 and 5.0 × 10^−4 mol/L. AChE and iodinated thioacetylcholine were prepared using the same method.
The mixture was incubated for 10 min at 37 °C in a thermostatic water bath to form the enzyme reaction solution, followed by the addition of linoleic acid (5.0 × 10^−4 mol/L) as the substrate. […] For the AChE assay, 0.1 ml of DTNB solution was included in the reaction mixture and incubated under the same conditions as those used in the 5-LOX experiment, while all other procedural steps remained identical. The control group was not supplemented with samples, while the blank group received an equal volume of buffer solution in place of the enzyme solution. […] Enzyme activity in the absence of any inhibitor was regarded as 100%.
By analyzing the correlation between reaction rate and enzyme concentration, a kinetic curve was generated.
Data analysis was carried out using Origin 8.0 software through one-way ANOVA, with each sample group subjected to three independent replicate experiments (p < 0.05).

T2 sequence (A0ABM3VDL1 81-660): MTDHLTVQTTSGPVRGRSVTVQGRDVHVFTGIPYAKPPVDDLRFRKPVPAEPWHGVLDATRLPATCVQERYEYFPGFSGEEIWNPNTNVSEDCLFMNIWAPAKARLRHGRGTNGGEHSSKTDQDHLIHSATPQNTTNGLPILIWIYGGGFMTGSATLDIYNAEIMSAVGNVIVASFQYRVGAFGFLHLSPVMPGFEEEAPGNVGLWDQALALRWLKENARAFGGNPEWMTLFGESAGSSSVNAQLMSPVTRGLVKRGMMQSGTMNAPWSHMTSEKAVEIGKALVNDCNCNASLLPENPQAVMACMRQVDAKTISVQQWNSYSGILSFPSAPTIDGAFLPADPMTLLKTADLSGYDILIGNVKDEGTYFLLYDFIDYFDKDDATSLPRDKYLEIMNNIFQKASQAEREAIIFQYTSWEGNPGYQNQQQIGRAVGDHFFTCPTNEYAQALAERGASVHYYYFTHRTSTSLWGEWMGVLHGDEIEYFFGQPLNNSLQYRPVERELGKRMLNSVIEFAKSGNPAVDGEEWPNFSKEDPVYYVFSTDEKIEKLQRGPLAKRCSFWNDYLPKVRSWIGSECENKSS

SMILES | BD (binding degree) with 5-LOX ([1]; 5-LOX 0.5 U/ml) | BD (binding degree) with 5-LOX ([1]; 5-LOX 1.0 U/ml) | BD (binding degree) with 5-LOX ([1]; 5-LOX 2.0 U/ml) | BD (binding degree) with AChE ([2]; AChE 0.5 U/ml) | BD (binding degree) with AChE ([2]; AChE 1.0 U/ml) | BD (binding degree) with AChE ([2]; AChE 2.0 U/ml) | Inhibition type for 5-LOX [3] | Inhibition type for 5-LOX ([3]; listed as mussaenoside acid) | Kis, AChE ([4]; Lineweaver-Burk) | Inhibition type for AChE ([4]; concentration exceeds 10 × 10^−5 mol/L) | Inhibition type for AChE ([4]; concentrations below 5 × 10^−5 mol/L) | Inhibition type for AChE ([4]; overall statement in conclusion)
COc1cc(C2OCC3C(c4cc(OC)c(OC5OC(CO)C(O)C(O)C5O)c(OC)c4)OCC23)cc(OC)c1OC1OC(CO)C(O)C(O)C1O (stereo not drawn) [Eleutheroside E] | 38.17% | 55.16% | 59.44% | 12.19% | 21.06% | 69.87% |  |  |  |  |  | 
C[C@]1(O)CC[C@@H]2C(C(=O)O)=CO[C@@H](O[C@@H]3O[C@H](CO)[C@@H](O)[C@H](O)[C@H]3O)[C@@H]21 [Mussaenoside acid] |  |  |  |  |  |  | competitive inhibition | reversible inhibition | 102.08 | mixed-type inhibition | competitive inhibition | mixed-type inhibition

From publication PMC12678836, “Screening for dual-target enzyme inhibitors derived from Gardenia jasminoides roots, a medicinal and edible plant: investigation of their potential anti-dementia activity” (Frontiers in Nutrition, 2025)
